Like-named read-outs stand apart in the source and are kept apart here.
Legend:
[1] = Stability in liver microsomes, human; conditions: for AUC: human
[2] = Stability in liver microsomes, rat
[3] = Stability in liver microsomes, dog
[4] = Stability in cryopreserved hepatocytes, human; conditions: for AUC: human
[5] = Stability in cryopreserved hepatocytes, rat; conditions: for AUC: rat
[6] = Stability in cryopreserved hepatocytes, dog; conditions: for AUC: dog
[7] = Stability in human subcutaneous skin homogenate; conditions: for AUC: human
[8] = rat
[9] = dog

CCCCCC(CCC1C(O)CC2Cc3c(cccc3OCC(=O)O)CC21)OC(=O)C1CCCN1 (stereo not drawn) [XXXVI]
Trep Concentration 0 min [1]: 0.443 µM
Trep Concentration 10 min [1]: 0.502 µM
Trep Concentration 20 min [1]: 0.478 µM
Trep Concentration 30 min [1]: 0.379 µM
Trep Concentration 60 min [1]: 0.316 µM
AUC [1]: 24.34 µmol·min/L
Trep Concentration 0 min [2]: 0.154 µM
Trep Concentration 10 min [2]: 0.242 µM
Trep Concentration 20 min [2]: 0.326 µM
Trep Concentration 30 min [2]: 0.342 µM
Trep Concentration 60 min [2]: 0.463 µM
Trep Concentration 0 min [3]: 0.102 µM
Trep Concentration 10 min [3]: 0.199 µM
Trep Concentration 20 min [3]: 0.309 µM
Trep Concentration 30 min [3]: 0.353 µM
Trep Concentration 60 min [3]: 0.483 µM
Trep Concentration (μM) 0 min [4]: 0 µM
Trep Concentration (μM) 15 min [4]: 0.502 µM
Trep Concentration (μM) 30 min [4]: 0.512 µM
Trep Concentration (μM) 60 min [4]: 0.45 µM
Trep Concentration (μM) 120 min [4]: 0.482 µM
AUC [4]: 53.76 µmol·min/L
Trep Concentration (μM) 0 min [5]: 0.00925 µM
Trep Concentration (μM) 15 min [5]: 0.494 µM
Trep Concentration (μM) 30 min [5]: 0.511 µM
Trep Concentration (μM) 60 min [5]: 0.505 µM
Trep Concentration (μM) 120 min [5]: 0.499 µM
AUC [5]: 56.67 µmol·min/L
Trep Concentration (μM) 0 min [6]: 0 µM
Trep Concentration (μM) 15 min [6]: 0.229 µM
Trep Concentration (μM) 30 min [6]: 0.276 µM
Trep Concentration (μM) 60 min [6]: 0.264 µM
Trep Concentration (μM) 120 min [6]: 0.279 µM
AUC [6]: 29.90 µmol·min/L
Trep Concentration 0 min [7]: 0 µM
Trep Concentration 30 min [7]: 0.328 µM
Trep Concentration 60 min [7]: 0.559 µM
Trep Concentration 120 min [7]: 0.852 µM
AUC [7]: 60.56 µmol·min/L
AUC [8]: 20.24 µmol·min/L
AUC [9]: 19.90 µmol·min/L

CCCCCC(CCC1C(O)CC2Cc3c(cccc3OCC(=O)O)CC21)OC(=O)C(N)CCCCN (stereo not drawn) [XXXV]
Trep Concentration 0 min [1]: 0.0227 µM
Trep Concentration 10 min [1]: 0.0216 µM
Trep Concentration 20 min [1]: 0.0492 µM
Trep Concentration 30 min [1]: 0.0352 µM
Trep Concentration 60 min [1]: 0.0539 µM
AUC [1]: 2.33 µmol·min/L
Trep Concentration 0 min [2]: 0.0254 µM
Trep Concentration 10 min [2]: 0.0305 µM
Trep Concentration 20 min [2]: 0.0389 µM
Trep Concentration 30 min [2]: 0.0458 µM
Trep Concentration 60 min [2]: 0.079 µM
Trep Concentration 0 min [3]: 0.0159 µM
Trep Concentration 10 min [3]: 0.0246 µM
Trep Concentration 20 min [3]: 0.0405 µM
Trep Concentration 30 min [3]: 0.0449 µM
Trep Concentration 60 min [3]: 0.0788 µM
Trep Concentration (μM) 0 min [4]: 0 µM
Trep Concentration (μM) 15 min [4]: 0.0481 µM
Trep Concentration (μM) 30 min [4]: 0.0749 µM
Trep Concentration (μM) 60 min [4]: 0.123 µM
Trep Concentration (μM) 120 min [4]: 0.194 µM
AUC [4]: 13.76 µmol·min/L
Trep Concentration (μM) 0 min [5]: 0 µM
Trep Concentration (μM) 15 min [5]: 0.0876 µM
Trep Concentration (μM) 30 min [5]: 0.129 µM
Trep Concentration (μM) 60 min [5]: 0.169 µM
Trep Concentration (μM) 120 min [5]: 0.239 µM
AUC [5]: 18.99 µmol·min/L
Trep Concentration (μM) 0 min [6]: 0 µM
Trep Concentration (μM) 15 min [6]: 0.0601 µM
Trep Concentration (μM) 30 min [6]: 0.0885 µM
Trep Concentration (μM) 60 min [6]: 0.127 µM
Trep Concentration (μM) 120 min [6]: 0.139 µM
AUC [6]: 12.78 µmol·min/L
Trep Concentration 0 min [7]: 0 µM
Trep Concentration 30 min [7]: 0.857 µM
Trep Concentration 60 min [7]: 0.82 µM
Trep Concentration 120 min [7]: 0.929 µM
AUC [7]: 90.48 µmol·min/L
AUC [8]: 2.92 µmol·min/L
AUC [9]: 2.81 µmol·min/L

CCCCCC(CCC1C(O)CC2Cc3c(cccc3OCC(=O)O)CC21)OC(=O)CCC(=O)O (stereo not drawn) [XX]
Trep Concentration 0 min [1]: 0.048 µM
Trep Concentration 10 min [1]: 0.087 µM
Trep Concentration 20 min [1]: 0.092 µM
Trep Concentration 30 min [1]: 0.1 µM
Trep Concentration 60 min [1]: 0.16 µM
AUC [1]: 6.43 µmol·min/L
Trep Concentration 0 min [2]: 0.12 µM
Trep Concentration 10 min [2]: 0.24 µM
Trep Concentration 20 min [2]: 0.29 µM
Trep Concentration 30 min [2]: 0.38 µM
Trep Concentration 60 min [2]: 0.54 µM
Trep Concentration 0 min [3]: 0.019 µM
Trep Concentration 10 min [3]: 0.044 µM
Trep Concentration 20 min [3]: 0.087 µM
Trep Concentration 30 min [3]: 0.11 µM
Trep Concentration 60 min [3]: 0.2 µM
Trep Concentration (μM) 0 min [4]: 0 µM
Trep Concentration (μM) 15 min [4]: 0.1 µM
Trep Concentration (μM) 30 min [4]: 0.16 µM
Trep Concentration (μM) 60 min [4]: 0.246 µM
Trep Concentration (μM) 120 min [4]: 0.344 µM
AUC [4]: 26.49 µmol·min/L
Trep Concentration (μM) 0 min [5]: 0.0112 µM
Trep Concentration (μM) 15 min [5]: 0.441 µM
Trep Concentration (μM) 30 min [5]: 0.542 µM
Trep Concentration (μM) 60 min [5]: 0.594 µM
Trep Concentration (μM) 120 min [5]: 0.609 µM
AUC [5]: 63.89 µmol·min/L
Trep Concentration (μM) 0 min [6]: 0 µM
Trep Concentration (μM) 15 min [6]: 0.0459 µM
Trep Concentration (μM) 30 min [6]: 0.0824 µM
Trep Concentration (μM) 60 min [6]: 0.136 µM
Trep Concentration (μM) 120 min [6]: 0.198 µM
AUC [6]: 14.60 µmol·min/L
Trep Concentration 0 min [7]: 0 µM
Trep Concentration 30 min [7]: 0 µM
Trep Concentration 60 min [7]: 0.019 µM
Trep Concentration 120 min [7]: 0.03 µM
AUC [7]: 1.76 µmol·min/L
AUC [8]: 21.60 µmol·min/L
AUC [9]: 6.61 µmol·min/L

Source: US12491170B2, “Stable treprostinil prodrugs” (United Therapeutics Corporation, priority 2020, dated 2025)
